Source: US9775831B2, “Combinations comprising biphenyl derivatives for use in the treatment of HCV” (BRISTOL-MYERS SQUIBB COMPANY, priority 2013, dated 2017)
Like-named read-outs stand apart in the source and are kept apart here.

Assays:
[1] = tested on: genotype-1a variant with glutamine 30 changed to glutamate in the NS5A protein; conditions: cited from earlier work
[2] = tested on: genotype-1a variant with glutamine 30 changed to glutamate in the NS5A protein; test: HCV replicon cell-based assay, NS5A synergy with BMS-790052; conditions: genotype 1a Q→E variant; test compound titrated in combination with NS5A-targeting compound (BMS-790052 fixed at 200 nM)
Description: The NS5A synergistic inhibitory effect of test compounds can be determined using various amounts of an NS5A-targeting compound with titration of a second compound of interest. […] In one embodiment, the HCV genotype strain can be genotype 1a containing a change at amino acid 30 of the NS5A protein consisting of glutamine to glutamate. The test compound can be chosen from compounds listed above or from others present in the literature.

[3] = genotype-1a Q30E NS5A variant replicon, compound alone, read-out: EC50, titrated singly

Structure (SMILES)	Fold Synergistic (1a-QE) [2] [Fold]	further results
COC(=O)N[C@H](C(=O)N1CCC[C@H]1c1nc(-c2ccc(-c3ccc(-c4c[nH]c([C@@H]5CCCN5C(=O)[C@@H](NC(=O)OC)C(C)C)n4)cc3)cc2)c[nH]1)C(C)C [BMS-790052]	–	reciprocal synergistic inhibitory effect for the combination ([1]; BMS-790052 titrated with P-55 fixed at 200 nM, genotype-1a Q30E variant): ~100 fold; EC50 [1, 3]: ~200 nM; EC50 ([1]; genotype-1a Q30E variant, P-55 fixed at 200 nM, read-out: EC50 of BMS-790052 in the presence of a fixed amount of P-55): ~2 nM
CC(C)CC(=O)N[C@H](c1ncc(-c2ccc(-c3ccc(-c4cnc([C@@H](NC(=O)CC(C)C)C(C)C)[nH]4)cc3)cc2)[nH]1)C(C)C [Example P-55]	–	synergistic inhibitory effect for the combination ([1]; P-55 titrated with BMS-790052 fixed at 200 nM, genotype-1a Q30E variant): > 100 fold; EC50 [1, 3]: > 200 nM; EC50 ([1]; genotype-1a Q30E variant, BMS-790052 fixed at 200 nM, read-out: EC50 of P-55 in the presence of a fixed amount of BMS-790052): ~2 nM
CCO[C@H](CC(=O)NCC(C)C)C(=O)N[C@H](c1ncc(-c2ccc(-c3ccc(-c4cnc([C@@H](NC(=O)[C@@H](CC(=O)NCC(C)C)OCC)C(C)(C)C)[nH]4)cc3)cc2)[nH]1)C(C)(C)C [MD-34]	>100	–
CC(C)CNC(=O)C[C@H](c1ncc(-c2ccc(-c3ccc(-c4cnc([C@@H](CC(=O)NCC(C)C)C(C)C)[nH]4)cc3)cc2)[nH]1)C(C)C [MD-35]	>10	–
C[C@H](CC(=O)N1CCOCC1)c1ncc(-c2ccc(-c3ccc(-c4cnc([C@H](C)CC(=O)N5CCOCC5)[nH]4)cc3)cc2)[nH]1 [MD-37]	>10	–
C[C@H](CC(=O)NC1CCOCC1)c1ncc(-c2ccc(-c3ccc(-c4cnc([C@H](C)CC(=O)NC5CCOCC5)[nH]4)cc3)cc2)[nH]1 [MD-39]	>10	–
CC(C)[C@H](CC(=O)NCC(C)(C)CO)c1ncc(-c2ccc(-c3ccc(-c4cnc([C@@H](CC(=O)NCC(C)(C)CO)C(C)C)[nH]4)cc3)cc2)[nH]1 [MD-42]	>10	–
CCCN(CC1CC1)C(=O)C[C@H](c1ncc(-c2ccc(-c3ccc(-c4cnc([C@@H](CC(=O)N(CCC)CC5CC5)C(C)C)[nH]4)cc3)cc2)[nH]1)C(C)C [MD-44]	>10	–
CCC(CC)CNC(=O)C[C@H](c1ncc(-c2ccc(-c3ccc(-c4cnc([C@@H](CC(=O)NCC(CC)CC)C(C)C)[nH]4)cc3)cc2)[nH]1)C(C)C [MD-45]	>100	–
CC(C)[C@H](CC(=O)NCC(C)(C)c1ccccc1)c1ncc(-c2ccc(-c3ccc(-c4cnc([C@@H](CC(=O)NCC(C)(C)c5ccccc5)C(C)C)[nH]4)cc3)cc2)[nH]1 [MD-47]	>100	–
CC(C)NC(=O)CN(C)C(=O)C[C@H](c1ncc(-c2ccc(-c3ccc(-c4cnc([C@@H](CC(=O)N(C)CC(=O)NC(C)C)C(C)C)[nH]4)cc3)cc2)[nH]1)C(C)C [MD-48]	<10	–
CC(C)[C@H](CC(=O)N(C)CC(C)(C)C)c1ncc(-c2ccc(-c3ccc(-c4cnc([C@@H](CC(=O)N(C)CC(C)(C)C)C(C)C)[nH]4)cc3)cc2)[nH]1 [MD-49]	>10	–
CC(C)[C@H](CC(=O)N(C)C1CCOCC1)c1ncc(-c2ccc(-c3ccc(-c4cnc([C@@H](CC(=O)N(C)C5CCOCC5)C(C)C)[nH]4)cc3)cc2)[nH]1 [MD-50]	<10	–
CC(C)[C@H](CC(=O)NCC(C)(C)C(N)=O)c1ncc(-c2ccc(-c3ccc(-c4cnc([C@@H](CC(=O)NCC(C)(C)C(N)=O)C(C)C)[nH]4)cc3)cc2)[nH]1 [MD-51]	>10	–
CC(C)[C@H](CC(=O)N(Cc1ccccc1)C(C)C)c1ncc(-c2ccc(-c3ccc(-c4cnc([C@@H](CC(=O)N(Cc5ccccc5)C(C)C)C(C)C)[nH]4)cc3)cc2)[nH]1 [MD-52]	>100	–
CC(C)[C@H](CC(=O)N1CCN(C)C(=O)C1)c1ncc(-c2ccc(-c3ccc(-c4cnc([C@@H](CC(=O)N5CCN(C)C(=O)C5)C(C)C)[nH]4)cc3)cc2)[nH]1 [MD-53]	<10	–
CC(C)[C@H](CC(=O)NCC1(O)CCC1)c1ncc(-c2ccc(-c3ccc(-c4cnc([C@@H](CC(=O)NCC5(O)CCC5)C(C)C)[nH]4)cc3)cc2)[nH]1 [MD-54]	>10	–
CCOC(=O)N1CCN(C(=O)C[C@@H](CCC(F)(F)F)c2ncc(-c3ccc(-c4ccc(-c5cnc([C@H](CCC(F)(F)F)CC(=O)N6CCN(C(=O)OCC)CC6)[nH]5)cc4)cc3)[nH]2)CC1 [MD-58]	>10	–
O=C(C[C@@H](CCC(F)(F)F)c1ncc(-c2ccc(-c3ccc(-c4cnc([C@H](CCC(F)(F)F)CC(=O)NC5CCOCC5)[nH]4)cc3)cc2)[nH]1)NC1CCOCC1 [MD-61]	<10	–
